Patent publication US10118902B2 (Sanford Burnham Prebys Medical Discovery Institute, priority 2014, dated 2018)

target: neurotensin receptor 1 (NTR1) (Homo sapiens (Human), UniProt P30989); assay: NTR1 dose response, high-content imaging beta-arrestin-GFP assay in NTR1-U2OS cells; assay type: cell-based; settings: read-out: EC50
Sequence (P30989 whole entry, species assumed): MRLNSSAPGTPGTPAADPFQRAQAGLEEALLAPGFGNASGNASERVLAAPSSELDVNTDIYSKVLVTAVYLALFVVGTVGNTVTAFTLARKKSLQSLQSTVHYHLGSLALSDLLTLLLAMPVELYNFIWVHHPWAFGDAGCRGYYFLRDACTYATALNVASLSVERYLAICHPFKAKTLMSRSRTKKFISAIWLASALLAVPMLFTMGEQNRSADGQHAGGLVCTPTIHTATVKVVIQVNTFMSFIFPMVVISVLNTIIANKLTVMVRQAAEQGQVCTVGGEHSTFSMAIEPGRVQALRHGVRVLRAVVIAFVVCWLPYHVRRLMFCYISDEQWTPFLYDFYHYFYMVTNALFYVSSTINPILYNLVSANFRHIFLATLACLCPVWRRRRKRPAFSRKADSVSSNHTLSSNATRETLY

Compound	EC50 [nM]
CN(C)c1ccccc1C1CCN(c2nc(C3(F)CCCC3)nc3ccc(N(C)CCO)cc23)CC1 [Example 75, 2-{[4-[4-(2-dimethylamino-phenyl)-piperidin-1-yl]-2-(1-fluoro-cyclopentyl)-quinazolin-6-yl]-methyl-amino}-ethanol]	2000 to 10000
COc1ccccc1C1CCN(c2nc(C3CC3)nc3ccc(N4CCC(O)CC4)cc23)CC1 [Example 76, 1-{2-cyclopropyl-4-[4-(2-methoxy-phenyl)-piperidin-1-yl]-quinazolin-6-yl}-piperidin-4-ol]	2000 to 10000
COc1ccccc1C1CCN(c2nc(C3CC3)nc3ccc(N4CCC(OC)CC4)cc23)CC1 [Example 77]	2000 to 10000
COc1ccccc1C1CCN(c2nc(C3CC3)nc3ccc(N4CCC(N(C)C)CC4)cc23)CC1 [Example 78, (1-{2-cyclopropyl-4-[4-(2-methoxy-phenyl)-piperidin-1-yl]-quinazolin-6-yl}-piperidin-4-yl)-dimethyl-amine]	> 10000
COc1ccccc1C1CCN(c2nc(C3CC3)nc3ccc(N4CCC(O)C4)cc23)CC1 (stereo not shown) [Example 79, 1-{2-cyclopropyl-4-[4-(2-methoxy-phenyl)-piperidin-1-yl]-quinazolin-6-yl}-pyrrolidin-3-ol]	500 to 2000
COc1ccccc1C1CCN(c2nc(C3CC3)nc3ccc(N4CCC(OC)C4)cc23)CC1 (stereo not shown) [Example 80, 2-cyclopropyl-4-[4-(2-methoxy-phenyl)-piperidin-1-yl]-6-(3-methoxy-pyrrolidin-1-yl)-quinazoline]	500 to 2000
COc1ccccc1C1CCN(c2nc(C3CC3)nc3ccc(N4CC[C@@H](O)C4)cc23)CC1 [Example 81, (R)-1-{2-cyclopropyl-4-[4-(2-methoxy-phenyl)-piperidin-1-yl]-quinazolin-6-yl}-pyrrolidin-3-ol]	< 500
COc1ccccc1C1CCN(c2nc(C3CC3)nc3ccc(N4CC[C@H](O)C4)cc23)CC1 [Example 82, (S)-1-(2-cyclopropyl-4-(4-(2-methoxyphenyl)piperidin-1-yl)quinazolin-6-yl)pyrrolidin-3-ol]	500 to 2000
COc1ccccc1C1CCN(c2nc(C3CC3)nc3ccc(N4CC[C@@H](OC)C4)cc23)CC1 [Example 83, (R)-2-cyclopropyl-4-(4-(2-methoxyphenyl)piperidin-1-yl)-6-(3-methoxypyrrolidin-1-yl)quinazoline]	< 500
COc1ccccc1C1CCN(c2nc(C3CC3)nc3ccc(N4CC[C@H](OC)C4)cc23)CC1 [Example 84, (S)-2-cyclopropyl-4-(4-(2-methoxyphenyl)piperidin-1-yl)-6-(3-methoxypyrrolidin-1-yl)quinazoline]	500 to 2000
CCCN(C)Cc1ccc2nc(C3CC3)nc(N3CCC(c4ccccc4OC)CC3)c2c1 [Example 85, {2-cyclopropyl-4-[4-(2-methoxy-phenyl)-piperidin-1-yl]-quinazolin-6-ylmethyl}-methyl-propyl-amine]	> 10000
COc1ccccc1C1CCN(c2nc(C3CC3)nc3ccc(CN(C)C)cc23)CC1 [Example 86, {2-cyclopropyl-4-[4-(2-methoxy-phenyl)-piperidin-1-yl]-quinazolin-6-ylmethyl}-dimethyl-amine]	> 10000
COCCN(C)Cc1ccc2nc(C3CC3)nc(N3CCC(c4ccccc4OC)CC3)c2c1 [Example 87, {2-cyclopropyl-4-[4-(2-methoxy-phenyl)-piperidin-1-yl]-quinazolin-6-ylmethyl}-(2-methoxy-ethyl)-methyl-amine]	2000 to 10000
COc1ccccc1C1CCN(c2nc(C3CC3)nc3ccc(CN(C)CCN4CCOCC4)cc23)CC1 [Example 88, {2-cyclopropyl-4-[4-(2-methoxy-phenyl)-piperidin-1-yl]-quinazolin-6-ylmethyl}-methyl-(2-morpholin-4-yl-ethyl)-amine]	> 10000
COc1ccccc1C1CCN(c2nc(C3CC3)nc3ccc(CN(C)CCO)cc23)CC1 [Example 89, 2-({2-cyclopropyl-4-[4-(2-methoxy-phenyl)-piperidin-1-yl]-quinazolin-6-ylmethyl}-methyl-amino)-ethanol]	> 10000
CCOC(=O)CN(C)c1ccc2nc(C3CC3)nc(N3CCC(c4ccccc4OC)CC3)c2c1 [Example 90, ({2-cyclopropyl-4-[4-(2-methoxy-phenyl)-piperidin-1-yl]-quinazolin-6-yl}-methyl-amino)-acetic acid ethyl ester]	> 10000
CCOC(=O)CN(CC(=O)OCC)C1CCN(c2ccc3nc(C4CC4)nc(N4CCC(c5ccccc5OC)CC4)c3c2)CC1 [Example 92]	> 10000
CCOC(=O)CN(C)C1CCN(c2ccc3nc(C4CC4)nc(N4CCC(c5ccccc5OC)CC4)c3c2)CC1 [Example 93, [(1-{2-cyclopropyl-4-[4-(2-methoxy-phenyl)-piperidin-1-yl]-quinazolin-6-yl}-piperidin-4-yl)-methyl-amino]-acetic acid ethyl ester]	> 10000
COc1ccccc1C1CCN(c2nc(N(C)C)nc3ccc(N(C)CCO)cc23)CC1 [Example 94]	500 to 2000

Compound	EC50 [nM]
CCCN(C)c1ccc2nc(N(C)C)nc(N3CCC(c4ccccc4OC)CC3)c2c1 [Example 95, 4-(4-(2-methoxyphenyl)piperidin-1-yl)-N2,N2,N6-trimethyl-N6-propylquinazoline-2,6-diamine]	> 10000
CCCN(CCC)c1ccc2nc(N(C)C)nc(N3CCC(c4ccccc4OC)CC3)c2c1 [Example 96, 4-(4-(2-methoxyphenyl)piperidin-1-yl)-N2,N2-dimethyl-N6,N6-dipropylquinazoline-2,6-diamine]	> 10000
CCCN(C)c1ccc2nc(NC3CCC3)nc(N3CCC(c4ccccc4OC)CC3)c2c1 [Example 97, N2-Cyclobutyl-4-[4-(2-methoxy-phenyl)-piperidin-1-yl]-N6-methyl-N6-propyl-quinazoline-2,6-diamine]	> 10000
COc1ccccc1C1CCN(c2nc(NC3CCC3)nc3ccc(N(C)CCO)cc23)CC1 [Example 98, 2-((2-(cyclobutylamino)-4-(4-(2-methoxyphenyl)piperidin-1-yl)quinazolin-6-yl)(methyl)amino)ethanol]	> 10000
COc1ccccc1N1CC2(C1)CN(c1nc(C3CC3)nc3ccc(N(C)CCO)cc13)C2 [Example 99, 2-({2-cyclopropyl-4-[6-(2-methoxy-phenyl)-2,6-diaza-spiro [3.3]hept-2-yl]-quinazolin-6-yl}-methyl-amino)-ethanol]	2000 to 10000
CCCN(C)c1ccc2nc(C3CC3)nc(N3CC4(CN(c5ccccc5OC)C4)C3)c2c1 [Example 100, {2-cyclopropyl-4-[6-(2-methoxy-phenyl)-2,6-diaza-spiro [3.3]hept-2-yl]-quinazolin-6-yl}-methyl-propyl-amine]	2000 to 10000
COc1ccccc1N1CC2(C1)CN(c1nc(C3CC3)nc3ccc(N(C)CCN4CCOCC4)cc13)C2 [Example 101, {2-cyclopropyl-4-[6-(2-methoxy-phenyl)-2,6-diaza-spiro [3.3]hept-2-yl]-quinazolin-6-yl}-methyl-(2-morpholin-4-yl-ethyl)-amine]	> 10000
CCCN(C)c1ccc2nc(C3CC3)nc(N3CCC(c4ccccc4OC)CC3=O)c2c1 (stereo not shown) [Example 102, 1-[2-cyclopropyl-6-(methyl-propyl-amino)-quinazolin-4-yl]-4-(2-methoxy-phenyl)-piperidin-2-one]	> 10000
COc1ccccc1C1CCN(c2nc(C3CC3)nc3ccc(N(C)CCO)c(Cl)c23)CC1 [Example 103, 2-({5-chloro-2-cyclopropyl-4-[4-(2-methoxy-phenyl)-piperidin-1-yl]-quinazolin-6-yl}-methyl-amino)-ethanol]	< 500
CCCN(C)c1cc2c(N3CCC(c4ccccc4OC)CC3)nc(C3CC3)nc2cc1Cl [Example 104, {7-chloro-2-cyclopropyl-4-[4-(2-methoxy-phenyl)-piperidin-1-yl]-quinazolin-6-yl}-methyl-propyl-amine]	> 10000
CCCN(C)c1cc2c(N3CCC(c4ccccc4OC)CC3)nc(C3CC3)nc2cc1F [Example 105, {2-cyclopropyl-7-fluoro-4-[4-(2-methoxy-phenyl)-piperidin-1-yl]-quinazolin-6-yl}-methyl-propyl-amine]	2000 to 10000
CCCN(C)c1cc2c(N3CCC(c4ccccc4N4CCC4)CC3)nc(C3CC3)nc2cc1F [Example 106, {4-[4-(2-azetidin-1-yl-phenyl)-piperidin-1-yl]-2-cyclopropyl-7-fluoro-quinazolin-6-yl}-methyl-propyl-amine]	> 10000
COc1ccccc1C1CCN(c2nc(C3CC3)nc3cc(Cl)c(N(C)CCO)cc23)CC1 [Example 107, 2-({7-chloro-2-cyclopropyl-4-[4-(2-methoxy-phenyl)-piperidin-1-yl]-quinazolin-6-yl}-methyl-amino)-ethanol]	500 to 2000
COc1cc(F)ccc1C1CCN(c2nc(C3CC3)nc3ccc(N(C)CCO)cc23)CC1 [Example 108, 2-({2-cyclopropyl-4-[4-(4-fluoro-2-methoxy-phenyl)-piperidin-1-yl]-quinazolin-6-yl}-methyl-amino)-ethanol]	500 to 2000
COc1ccc(F)cc1C1CCN(c2nc(C3CC3)nc3ccc(N(C)CCO)cc23)CC1 [Example 109, 2-({2-cyclopropyl-4-[4-(5-fluoro-2-methoxy-phenyl)-piperidin-1-yl]-quinazolin-6-yl}-methyl-amino)-ethanol]	500 to 2000
COc1cc(F)ccc1C1CCN(c2nc(C3CC3)nc3cc(F)c(N(C)CCO)cc23)CC1 [Example 110, 2-({2-cyclopropyl-7-fluoro-4-[4-(4-fluoro-2-methoxy-phenyl)-piperidin-1-yl]-quinazolin-6-yl}-methyl-amino)-ethanol]	500 to 2000
COc1ccc(F)cc1C1CCN(c2nc(C3CC3)nc3cc(F)c(N(C)CCO)cc23)CC1 [Example 111, 2-({2-cyclopropyl-7-fluoro-4-[4-(5-fluoro-2-methoxy-phenyl)-piperidin-1-yl]-quinazolin-6-yl}-methyl-amino)-ethanol]	500 to 2000
COc1cc(F)ccc1C1CCN(c2nc(C3CC3)nc3cc(Cl)c(N(C)CCO)cc23)CC1 [Example 112, 2-({7-chloro-2-cyclopropyl-4-[4-(4-fluoro-2-methoxy-phenyl)-piperidin-1-yl]-quinazolin-6-yl}-methyl-amino)-ethanol]	> 10000
